These results are taken from ChEMBL document CHEMBL3797148, “Antiprotozoal activity of dehydroabietic acid derivatives against Leishmania donovani and Trypanosoma cruzi” (Medchemcomm, 2016).

The subject of the experiment is Leishmania donovani. Description: Antileishmanial activity against axenic amastigote stage of Leishmania donovani MHOM/SD/1962/1S-Cl2d assessed as inhibition of parasite growth at 1 uM after 24 hrs by Alamar blue viability assay. The experiment is classed as functional. The note with it: read-out: GI.

For the compound `C[C@@H]1[C@H](O)[C@@H](C)/C=C/C=C/C=C/C=C/C=C/C=C/C=C/[C@H](O[C@@H]2O[C@H](C)[C@@H](O)[C@H](N)[C@@H]2O)C[C@@H]2O[C@](O)(C[C@@H](O)C[C@@H](O)[C@H](O)CC[C@@H](O)C[C@@H](O)CC(=O)O[C@H]1C)C[C@H](O)[C@H]2C(=O)O` [AMPHOTERICIN B], the inhibition of growth at 1 µM was above 90%.
